Source: US11352382B2, “Mito-lonidamine, compositions and methods of use” (THE MEDICAL COLLEGE OF WISCONSIN, INC., priority 2018, dated 2022)

Tests used:
[1] = at clinically relevant concentrations (<130 μM); cited from earlier work
[2] = system: H2030BrM3 cells; experiment: Cell proliferation, IncuCyte Live-Cell Imaging Analyzer (cell confluence); format: cell-based; conditions: Homo sapiens, H2030-BrM3; H2030BrM3 cells, IncuCyte, FIG. 14; read-out: IC50, cell proliferation
Experimental: (§1) In contrast, Mito-LON (1.2-2.7 μM) targets mitochondrial complexes I and II (FIG. 9); its mitochondrial effects are supported by the compartment-selective oxidation of mitochondrial Prx3 (FIG. 13). The anti-proliferative effects of Mito-LON and LON were compared in H2030BrM3 cells.

[3] = system: HK2; experiment: HK2 protein levels and mRNA expression in lung cancer lines; format: cell-based, human
Experimental: as §1
Role of HK2 and additional possible signaling events that contribute to the effects of Mito-LON. […] This could contribute to their effects as many cancers have constitutive ERK activation which promotes survival and proliferation, and ERK1 can play an important role in regulating mitochondrial activity, apoptosis, proliferation and migration. […] AKT is another pro-survival factor that is constitutively activated (phosphorylated) in many cancers.

[4] = system: mitochondrial complexes I and II; experiment: Inhibition of mitochondrial complexes I and II, stated jointly; format: cell-based, human
Source text: LON and Mito-LON inhibit mitochondrial complex I activity. Mito-LON inhibited cellular respiration (oxygen consumption rate, OCR) at >100-fold lower concentration than LON in intact lung cancer cells (FIG. 9). Both basal respiration and the response to mitochondrial stressors (oligomycin, dinitrophenol) were diminished by Mito-LON (not shown). To investigate the mechanism of mitochondrial inhibition, we measured the activity of mitochondrial complexes in H2030BrM3 cells (NSCLC cell line). The cell membrane was permeabilized, and OCR was measured upon addition of substrates and inhibitors of mitochondrial complexes I-IV (FIG. 9A). These studies established the optimal use of permeabilized cells for complex activity assays.^54 Next, cells were pretreated with LON and Mito-LON for 24 h and experiments performed as in FIG. 9A. […] We hypothesize that inhibition of mitochondrial complexes I and II is the predominant mechanism for antiproliferative effects of Mito-LON on lung cancer cells.

[5] = patients; cited from earlier work
[6] = system: Pancreatic cancer cells; experiment: Anti-proliferative effects in pancreatic cancer cells (number of cells over time); format: cell-based, human; conditions: Pancreatic cancer cell; in vitro; b60 words: cancer cells (human pancreatic cancer, lung cancer and brain metastasis); read-out: IC50, inhibiting the proliferation of cancer cells
Experimental: Pancreatic cancer cells were treated with either LND or Mito-LND at varying concentrations and the number of cells was assayed over time.

[7] = system: PC9BrM3 and H2030BrM3 brain metastasis lung cancer cell lines; experiment: Boyden chamber (transwell) invasion assay; format: cell-based; conditions: Homo sapiens, H2030-BrM3; LON 100 μM alone; read-out: inhibitory effect on invasion when used alone
Source text: Mito-LON inhibits migration and invasion of brain metastatic human lung cancer cells. To investigate the potential of Mito-LON and LON for lung cancer metastasis, we first tested its effects in vitro via the Boyden chamber invasion assay using PC9BrM3 and H2030BrM3 brain metastasis lung cancer cell lines.

[8] = system: H2030BrM3 cells; experiment: Cellular ROS production, HPLC-based analysis of hydroethidine (HE) oxidation; format: cell-based, human; conditions: 200 μM, H2030BrM3 cells
Source text: Inhibition of mitochondrial respiration results in increased O2^⋅− and other oxidants.

[9] = system: H2030BrM3 orthotopic lung adenocarcinoma in nude mice; experiment: Orthotopic lung tumor mouse model; format: in vivo; conditions: 7.5 μmol/kg oral gavage 5 times/wk for 3 wks, nude mice
Experimental: Inhibitory effects of Mito-LON in an orthotopic lung tumor mouse model. We conducted a pilot study using an orthotopic model of lung adenocarcinoma (H2030BrM3 cells) in nude mice. Cells (1×10^6 cells/50 μg of growth factor-reduced Matrigel in 50 μL of RPMI-1640) were injected into the lung. One week after injection, mice were treated with the same dose of LON or Mito-LON (7.5 μmol/kg), or vehicle (corn oil), by oral gavage 5 times/wk for 3 wks.

- IC50 [2]: 140 µM
- IC50 ([3]; FIG. 17, read-out: IC50, ability to decrease HK2 levels): 100 to 150 µM
- IC50 [6]: 327 µM
SMILES: O=C(O)c1nn(Cc2ccc(Cl)cc2Cl)c2ccccc12 [LON, 1-(2,4-dichlorobenzyl)-1H-indazole-3-carboxylic acid, reference compound]
- effectiveness by itself in vitro [1]: only moderately effective
- HK2 levels ([3]; both lung cancer lines, within 3-6 h): decreased HK2 levels
- decrease of HK2 mRNA expression ([3]; not shown): > 80%
- concentration at which effects on complex I and II occur [4]: ca. 400 μM
- IC50 ([4]; pretreatment of H2030BrM3 cells, read-out: IC50, inhibition of complex I and II): ~400 µM
- typical peak plasma levels [5]: 17 to 127 µM
- inhibition at 100 µM [7]: < 10%
- intracellular levels of 2-OH-E+ (superoxide-specific product of HE oxidation) [8]: increase
- efficacy in orthotopic lung tumor model [9]: not effective
